Test results as given in ChEMBL document CHEMBL3044899, “Effect of chloro and fluoro groups on the antimicrobial activity of 2,5-disubstituted 4-thiazolidinones: a comparative study” (2012).
Calls of active or inactive are those of the source. The rule behind the calls is not given here.

Columns and labels:
Bacillus subtilis [1] = assay: Antibacterial activity against Bacillus subtilis MTCC 121 by cup plate method; type: functional, organism-based
Candida albicans = assay: Antifungal activity against Candida albicans MTCC 227 at 50 to 300 ug/ml by cup-plate method; type: functional, organism-based
Pseudomonas aeruginosa [2] = assay: Antibacterial activity against Pseudomonas aeruginosa MTCC 2453 by cup-plate method; type: functional, organism-based
Pseudomonas aeruginosa [3] = assay: Antibacterial activity against Pseudomonas aeruginosa MTCC 2453 at 300 ug/ml by cup-plate method; type: functional; conditions: read-out: DIZ
Escherichia coli [4] = assay: Antibacterial activity against Escherichia coli MTCC 739 at 100 ug/ml by cup-plate method; type: functional; conditions: read-out: DIZ
Bacillus subtilis [5] = assay: Antibacterial activity against Bacillus subtilis MTCC 121 at 200 ug/ml by cup plate method; type: functional; conditions: read-out: DIZ
Staphylococcus aureus [6] = assay: Antibacterial activity against Staphylococcus aureus MTCC 96 at 50 ug/ml by cup-plate method; type: functional; conditions: read-out: DIZ
Pseudomonas aeruginosa [7] = assay: Antibacterial activity against Pseudomonas aeruginosa MTCC 2453 at 200 ug/ml by cup-plate method; type: functional; conditions: read-out: DIZ
Bacillus subtilis [8] = assay: Antibacterial activity against Bacillus subtilis MTCC 121 at 50 ug/ml by cup plate method; type: functional; conditions: read-out: DIZ
Escherichia coli [9] = assay: Antibacterial activity against Escherichia coli MTCC 739 at 200 ug/ml by cup-plate method; type: functional; conditions: read-out: DIZ
Pseudomonas aeruginosa [10] = assay: Antibacterial activity against Pseudomonas aeruginosa MTCC 2453 at 100 ug/ml by cup-plate method; type: functional; conditions: read-out: DIZ
Bacillus subtilis [11] = assay: Antibacterial activity against Bacillus subtilis MTCC 121 at 100 ug/ml by cup plate method; type: functional; conditions: read-out: DIZ
Escherichia coli [12] = assay: Antibacterial activity against Escherichia coli MTCC 739 by cup-plate method; type: functional, organism-based
Staphylococcus aureus [13] = assay: Antibacterial activity against Staphylococcus aureus MTCC 96 at 300 ug/ml by cup-plate method; type: functional; conditions: read-out: DIZ
Bacillus subtilis [14] = assay: Antibacterial activity against Bacillus subtilis MTCC 121 at 300 ug/ml by cup plate method; type: functional; conditions: read-out: DIZ
Staphylococcus aureus [15] = assay: Antibacterial activity against Staphylococcus aureus MTCC 96 by cup-plate method; type: functional, organism-based
Escherichia coli [16] = assay: Antibacterial activity against Escherichia coli MTCC 739 at 50 ug/ml by cup-plate method; type: functional; conditions: read-out: DIZ
Staphylococcus aureus [17] = assay: Antibacterial activity against Staphylococcus aureus MTCC 96 at 100 ug/ml by cup-plate method; type: functional; conditions: read-out: DIZ
Escherichia coli [18] = assay: Antibacterial activity against Escherichia coli MTCC 739 at 300 ug/ml by cup-plate method; type: functional; conditions: read-out: DIZ
Pseudomonas aeruginosa [19] = assay: Antibacterial activity against Pseudomonas aeruginosa MTCC 2453 at 50 ug/ml by cup-plate method; type: functional; conditions: read-out: DIZ
Staphylococcus aureus [20] = assay: Antibacterial activity against Staphylococcus aureus MTCC 96 at 200 ug/ml by cup-plate method; type: functional; conditions: read-out: DIZ

SMILES	Activity (Bacillus subtilis [1])	Activity (Candida albicans)	Activity (Pseudomonas aeruginosa [2])	zone of inhibition at 300 µg/mL (Pseudomonas aeruginosa [3]) [mm]	zone of inhibition at 100 µg/mL (Escherichia coli [4]) [mm]	zone of inhibition at 200 µg/mL (Bacillus subtilis [5]) [mm]	zone of inhibition at 50 µg/mL (Staphylococcus aureus [6]) [mm]	zone of inhibition at 200 µg/mL (Pseudomonas aeruginosa [7]) [mm]	zone of inhibition at 50 µg/mL (Bacillus subtilis [8]) [mm]	zone of inhibition at 200 µg/mL (Escherichia coli [9]) [mm]	zone of inhibition at 100 µg/mL (Pseudomonas aeruginosa [10]) [mm]	zone of inhibition at 100 µg/mL (Bacillus subtilis [11]) [mm]	Activity (Escherichia coli [12])	zone of inhibition at 300 µg/mL (Staphylococcus aureus [13]) [mm]	zone of inhibition at 300 µg/mL (Bacillus subtilis [14]) [mm]	Activity (Staphylococcus aureus [15])	zone of inhibition at 50 µg/mL (Escherichia coli [16]) [mm]	zone of inhibition at 100 µg/mL (Staphylococcus aureus [17]) [mm]	zone of inhibition at 300 µg/mL (Escherichia coli [18]) [mm]	zone of inhibition at 50 µg/mL (Pseudomonas aeruginosa [19]) [mm]	other results
O=C1N/C(=N\c2ccc(F)c(Cl)c2)S/C1=C\c1ccccc1	Dose-dependent effect	inactive	Dose-dependent effect	12	8	10	6	10	6	11	10	6	Dose-dependent effect	10	12	Dose-dependent effect	7	10	12	8	zone of inhibition at 200 µg/mL (Staphylococcus aureus [20]): 10 mm
COc1cc(/C=C2\S/C(=N/c3cccc(Cl)c3)NC2=O)ccc1O	Dose-dependent effect	inactive	Dose-dependent effect	9	8	8	6	9	7	9	8	8	Dose-dependent effect	8	9	Dose-dependent effect	7	7	9	6	zone of inhibition at 200 µg/mL (Staphylococcus aureus [20]): 8 mm
O=C1N/C(=N\c2cccc(Cl)c2)S/C1=C\c1ccc(O)cc1	Dose-dependent effect	inactive	Dose-dependent effect	10	7	8	8	9	6	8	8	7	Dose-dependent effect	10	9	Dose-dependent effect	7	9	9	7	zone of inhibition at 200 µg/mL (Staphylococcus aureus [20]): 9 mm
O=C1N/C(=N\c2ccc(Cl)cc2)S/C1=C\c1ccccc1[N+](=O)[O-]	Dose-dependent effect	inactive	Dose-dependent effect	9	8	10	8	8	8	9	8	9	Dose-dependent effect	10	11	Dose-dependent effect	6	9	9	7	zone of inhibition at 200 µg/mL (Staphylococcus aureus [20]): 10 mm
O=C1N/C(=N\c2ccc(Cl)cc2)S/C1=C\c1ccc(O)cc1	Dose-dependent effect	inactive	Dose-dependent effect	9	7	7	6	8	6	8	8	7	Dose-dependent effect	8	8	Dose-dependent effect	7	7	8	7	zone of inhibition at 200 µg/mL (Staphylococcus aureus [20]): 7 mm
COc1cc(/C=C2\S/C(=N/c3ccc(Cl)cc3)NC2=O)ccc1O	Dose-dependent effect	inactive	Dose-dependent effect	9	8	7	6	8	6	9	7	7	Dose-dependent effect	8	7	Dose-dependent effect	7	6	9	7	zone of inhibition at 200 µg/mL (Staphylococcus aureus [20]): 7 mm
O=C1N/C(=N\c2ccc(F)c(Cl)c2)S/C1=C\c1ccccc1Cl	Dose-dependent effect	inactive	Dose-dependent effect	12	8	14	10	12	10	9	10	12	Dose-dependent effect	14	14	Dose-dependent effect	8	11	10	10	zone of inhibition at 200 µg/mL (Staphylococcus aureus [20]): 12 mm
COc1cc(/C=C2\S/C(=N/c3ccc(F)c(Cl)c3)NC2=O)ccc1O	Dose-dependent effect	inactive	Dose-dependent effect	10	8	8	7	10	7	8	9	8	Dose-dependent effect	11	10	Dose-dependent effect	7	8	9	7	zone of inhibition at 200 µg/mL (Staphylococcus aureus [20]): 9 mm
O=C1N/C(=N\c2ccc(Cl)cc2)S/C1=C\c1ccc(Cl)cc1	Dose-dependent effect	inactive	Dose-dependent effect	10	8	8	6	8	7	7	7	8	Dose-dependent effect	10	10	Dose-dependent effect	8	8	9	6	zone of inhibition at 200 µg/mL (Staphylococcus aureus [20]): 9 mm
O=C1N/C(=N\c2ccc(F)c(Cl)c2)S/C1=C\c1ccc(Cl)cc1	Dose-dependent effect	inactive	Dose-dependent effect	12	12	11	10	11	8	12	9	10	Dose-dependent effect	14	13	Dose-dependent effect	9	12	12	8	zone of inhibition at 200 µg/mL (Staphylococcus aureus [20]): 12 mm
O=C(O)c1cn(C2CC2)c2cc(N3CCNCC3)c(F)cc2c1=O [CIPROFLOXACIN]											15	15						14			
